Source: patent publication US8044018B2, “Reagents and methods for smooth muscle therapies” (Arizona Board of Regents, priority 2008, dated 2011)

Columns and labels:
Mesangial cells [1] = assay: Wrinkle assay: mesangial cells transfected with GFP, WT HSP20 or S16A-HSP20, on silicone rubber substrata; assay type: cell-based; conditions: dibutyryl cAMP 10 ΦM, 0-90 minutes
Experimental: The experiment was performed in the following fashion: Mesangial cells were transfected with vectors containing green fluorescent protein (GFP) alone, GFP fused to the 5′ end of the wild type cDNA for HSP20 (WT), or GFP fused to an HSP20 construct in which the PKA phosphorylation site was mutated to an alanine (S16A-HSP20) (MUT). The cells were plated on a silicone rubber substrata in the presence of serum for 48 hours. The plates were then placed on the stage of a Zeiss Inverted Fluorescence Microscope with DeltaVision image acquisition and deconvolution software (Applied Precision, Issaquah, Wash.). The DeltaVision software was configured to eight different cells (x and y axis) on each plate with 7 z-axis images taken at […] intervals. Fluorescent and phase contrast images were obtained such that the cells and silicone membrane were imaged in close succession. During the scanning process, the z-axis of each cell was monitored to assure that the imaging stacks were maintained at the appropriate level as the cells relaxed on the silicone membrane. Baseline images were acquired for one hour. The cells were then treated with […] dibutyryl cAMP (10 ΦM) for 0 minutes, 30 minutes, 60 minutes, or 90 minutes, and the results are illustrated in FIG. 1. […]

[2] = tested on: PKG transfected rat aortic smooth muscle cells; assay: Wrinkle assay: PKG transfected rat aortic smooth muscle cells on silicone substrata; assay type: cell-based; conditions: 10 uM for 30 minutes
Experimental: Rat aortic smooth muscle cells that are multiply passaged or that stably express PKG were cultured on a silicone substrata in the presence of serum. The cells were imaged with phase contrast microscopy (10× magnification). […] To determine if the wrinkles were reversible, PKG transfected cells were treated with dibutyryl cAMP (10 uM) for 30 minutes.

Mesangial cells [3] = assay: Actin filament staining (rhodamine phalloidin) of transfected mesangial cells; assay type: cell-based; conditions: 10 μM for 30 minutes; cells transfected with EGFP alone or S16A-HSP20
Source text: Transfected mesangial cells were fixed and the actin filaments were stained with fluorescent-labeled phalloidin.

A10 cells [4] = assay: Serum-induced proliferation, cell counts; assay type: cell-based; conditions: 50 μM in 10% FBS; 24 hours; serum starved 3 days beforehand
Experimental: A10 cells were serum starved for 3 days. The cells were then treated with media containing 10% fetal bovine serum, PTD-pHSP20 (NH2-βAYARRAAARQARAWLRRAS*APLPGLK-COOH (SEQ ID NO:307), or PTD-scrambled-pHSP20 (NH2-βAYARRAAARQARAPRKS*LWALGRPLA-COOH (SEQ ID NO:308) (50 μM). After 24 hours cell counts were performed. The number of cells per well in the serum starved plates averaged […] (+/−7.4) compared to 276+/−6.1 in wells containing 10% fetal bovine serum (FBS). In the presence of FBS, the phosphopeptide analogues of HSP20 containing a transduction domain inhibited of smooth muscle proliferation, 149+/−14.6 compared to transduction of the scrambled phosphopeptide analogue of HSP20 (242.3+/−15.3 cells/well). The results of these experiments are illustrated in FIG. 9.

[5] = tested on: corpra cavernosal smooth muscles; assay: Muscle bath: rabbit corpra cavernosal smooth muscle pre-contracted with norepinephrine; set-up: species or system New Zealand White rabbits
Experimental: (§1) Tracheal and corpra cavernosal smooth muscles were obtained from a New Zealand White rabbits after sacrifice. The muscles were equilibrated in a muscle bath as described in example 6. The tracheal muscles were pre-contracted with carbachol and the corpra cavernosal smooth muscles were pre-contracted with norepinephrine. The muscles were then treated with the PTD-phosphopeptide analogues of HSP20 (NH2-βAYARRAAARQARAWLRRAS*APLPGLK-COOH) (SEQ ID NO:307).

porcine coronary artery = assay: Muscle bath: serotonin pre-contracted rings of porcine coronary artery, endothelium not denuded; conditions: cumulative doses added every 10 minutes; n=5; FIG. 4
Experimental: Rings of porcine coronary artery in which the endothelium was not denuded, were suspended in a muscle bath containing bicarbonate buffer (120 mM NaCl, 4.7 mM KCl, 1.0 mM MgSO4, 1.0 mM NaH2PO4, 10 mM glucose, 1.5 mM CaCl2, and 25 mM […], pH 7.4), equilibrated with 95% O2/5% CO2, at 37° C. at one gram of tension for 2 hours. The muscles were pre-contracted with serotonin ([…] for 10 minutes) and cumulative doses of PTD-pHSP20 (NH2-βAYARRAAARQARAWLRRAS*APLPGLK-COOH, closed circles) (SEQ ID NO:307) or PTD-scrambled-pHSP20 (NH2-βAYARRAAARQARAPRKS*LWALGRPLA-COOH open circles) (SEQ ID NO:308) were added every 10 minutes (FIG. 4). The percentage of relaxation is depicted as a percentage of the maximal serotonin contraction (n=5, *=p<0.05 compared to 0 peptide added). The concentrations of peptide used are depicted on the x axis. Representative rings were treated with peptides (1 mM final concentration) linked to FITC (15 minutes at 37° C.), fixed in 4% paraformaldehyde and examined under fluorescence microscopy (40× magnification).

A10 cells [6] = assay: Scratch wound migration assay; assay type: cell-based; conditions: 50 μM; 10% FBS media; 24 hours
Experimental: Confluent A10 cells were serum starved (0.5% fetal bovine serum, FBS) for 48 hours. A linear wound was made in the smooth muscle cell monolayer using a rubber scraper and the scratched edges were marked using metal pins.

human saphenous vein = assay: Intimal hyperplasia in cultured human saphenous vein segments, morphometric intimal area; conditions: 14 days; media with 30% fetal bovine serum; versus serum alone or scrambled analogue
Experimental: Segments of human saphenous vein were cultured in media containing 30% fetal bovine serum.

[7] = tested on: Bovine aortic endothelial cells; assay: Focal adhesion disassembly, interference reflection microscopy; assay type: cell-based; conditions: HSP20 peptides 10 uM for 30 minutes; serum starved one hour
Experimental: Bovine aortic endothelial cells were plated on glass coverslips (80K-100K cells) in DMEM plus 10% FBS over night (24 wells plate). The cells were serum starved (no serum) for one hour and incubated in the presence of the peptide analogues of HSP20 [NH2-βAYARRAAARQARAWLRRAS*APLPGLK-COOH-pHSP20 (10 uM) (SEQ ID NO:307) or scrambled analogues of HSP20 [NH2-βAYARRAAARQARAPRKS*LWALGRPLA-COOH-scHSP20 (10 uM)] (SEQ ID NO:308) for 30 minutes. The cells were fixed with 3% glutaraldehyde and the number of focal adhesions was detected with interference reflection microscopy. The Hep I peptide was used as a positive control. This peptide binds to the heparin binding site of thrombospondin in induces focal adhesion disassembly. […] The results are illustrated in FIG. 7.

[8] = tested on: internal anal sphincter smooth muscles; assay: Muscle bath: human internal anal sphincter, tonic sustained contractions; conditions: 1 mM final concentration; after washout of sodium nitroprusside
Source text: The internal anal sphincter was obtained from a human pathology specimen after an abdominal perineal resection for cancer. The smooth muscles were equilibrated in a muscle bath as described in example 6. The muscles developed tonic sustained contractions when warmed in the bicarbonate buffer. These contractions relaxed with the addition of the guanylate cyclase activator, sodium nitroprusside (SNP). When the sodium nitroprusside was washed out of the bath, the muscles again contracted spontaneously. The muscles were then treated with the PTD-phosphopeptide analogues of HSP20 (NH2-βAYARRAAARQARAWLRRAS*APLPGLK-COOH, 1 mM final concentration) (SEQ ID NO:307).

[9] = tested on: Intestinal smooth muscle from the tinea coli; assay: Muscle bath: pig tinea coli, contractile response to carbachol; conditions: peptide in a dextran gel, 1 mM final concentration; then treated with carbachol
Experimental: Intestinal smooth muscle was obtained from the tinea coli of a pig. These muscles were equilibrated in a muscle bath as described in example 6. The muscles produced transient contractions in response to high extracellular potassium chloride (KCl 110 mM) and in response to carbachol (10^−6 M). The muscles were then treated with a dextran gel containing the PTD-phosphopeptide analogues of HSP20 (NH2-βAYARRAAARQARAWLRRAS*APLPGLK-COOH, 1 mM final concentration) (SEQ ID NO:307) and treated with carbachol.

A10 cells [10] = assay: Boyden chamber migration assay; assay type: cell-based
Tracheal smooth muscles = assay: Muscle bath: rabbit tracheal smooth muscle pre-contracted with carbachol; set-up: species or system New Zealand White rabbits
Experimental: as §1

[11] = tested on: Human saphenous vein smooth muscles; assay: Muscle bath: human saphenous vein rings, contraction in response to serotonin; conditions: peptide in 7.5% dextran gel; serotonin 1 uM
Experimental: Human saphenous vein was obtained from remnants that were discarded after vascular bypass operations. Rings of the saphenous vein were equilibrated in a muscle bath as described in experiment 4. The rings were treated with a 7.5% dextran gel alone, or a 7.5% dextran gel containing the phosphopeptide analogues of HSP20 (NH2-βAYARRAAARQARAWLRRAS*APLPGLK-COOH) (SEQ ID NO:307). The rings were then treated with serotonin (1 uM). The rings treated with the 7.5% dextran gel alone contracted in response to serotonin.

CCCC(=O)Nc1ncnc2c1ncn2[C@@H]1O[C@@H]2COP(=O)(O)O[C@H]2[C@H]1OC(=O)CCC [dibutyryl cAMP]
wrinkles under the cells (relaxation) (Mesangial cells [1]; cells expressing S16A-HSP20 (MUT)): did not relax
wrinkles under the cells (relaxation) (Mesangial cells [1]; control cells expressing GFP): relaxed over time
wrinkle formation [2]: decrease in wrinkle formation
central actin stress fibers (Mesangial cells [3]): loss of central actin stress fibers in EGFP but not S16A-HSP20 cells

NH2-βAYARRAAARQARAWLRRAS*APLPGLK-COOH (AYARRAAARQARAWLRRASAPLPGLK; HELM PEPTIDE1{[bAla].Y.A.R.R.A.A.A.R.Q.A.R.A.W.L.R.R.A.[O=C([C@H](COP(=O)(O)O)N[*:1])[*:2]].A.P.L.P.G.L.K}$$$$V2.0; SMILES CC(C)C[C@H](NC(=O)CNC(=O)[C@@H]1CCCN1C(=O)[C@H](CC(C)C)NC(=O)[C@@H]1CCCN1C(=O)[C@H](C)NC(=O)[C@H](COP(=O)(O)O)NC(=O)[C@H](C)NC(=O)[C@H](CCCNC(=N)N)NC(=O)[C@H](CCCNC(=N)N)NC(=O)[C@H](CC(C)C)NC(=O)[C@H](Cc1c[nH]c2ccccc12)NC(=O)[C@H](C)NC(=O)[C@H](CCCNC(=N)N)NC(=O)[C@H](C)NC(=O)[C@H](CCC(N)=O)NC(=O)[C@H](CCCNC(=N)N)NC(=O)[C@H](C)NC(=O)[C@H](C)NC(=O)[C@H](C)NC(=O)[C@H](CCCNC(=N)N)NC(=O)[C@H](CCCNC(=N)N)NC(=O)[C@H](C)NC(=O)[C@H](Cc1ccc(O)cc1)NC(=O)CCN)C(=O)N[C@@H](CCCCN)C(=O)O) [PTD-pHSP20, Phosphopeptide analogue of HSP20 with a protein transduction domain different from TAT]
number of cells per well (A10 cells [4]): 149+/−14.6 cells/well
relaxation of pre-contracted muscle [5]: relaxed and spasm was prevented
relaxation as percentage of the maximal serotonin contraction (porcine coronary artery): relax and prevent spasm
number of cells migrating into a 1 cm^2 scratched area (A10 cells [6]): inhibition of migration
intimal area (human saphenous vein): significant reduction in intimal area
focal adhesion disassembly (number of focal adhesions) [7]: led to focal adhesion disassembly
relaxation of spontaneous tonic contraction [8]: relaxed and spasm was prevented
contractile response to carbachol [9]: significantly attenuated
migration of A10 cells (A10 cells [10]): inhibition of migration
relaxation of pre-contracted muscle (Tracheal smooth muscles): relaxed and spasm was prevented
contraction in response to serotonin [11]: did not contract
